Test results published in patent US7939083B2, “Soluble, stabilized, proteolytically cleaved, trimeric HIV-1 gp140 proteins comprising modifications in the N-terminus of the gp41 ectodomain” (Progenics Pharmaceuticals Inc., priority 2006, dated 2011).

Experiments:
[1] = Tween 20 aggregate conversion experiments (BN-PAGE); format: physicochemical; settings: Tween 20 0.05%, 10 minutes, room temperature
Method: Tween® 20 Dose effect: 1 ug of purified KNH1144 SOSIP R6 trimer was incubated with varying concentrations of Tween® 20 (polyoxyethylene sorbitan monolaurate) ranging from 0 to 0.0001% (v/v) and incubated for 1 hour at room temperature. Following incubation, samples were analyzed by BN-PAGE as described above.
Kinetics of Tween® 20 effect: To ascertain the early kinetics of the Tween® 20 effect on aggregate, 1 ug of purified KNH1144 SOSIP R6 trimer was incubated with Tween® 20 at a final concentration of 0.05% (v/v) for 5 minutes and for 10 minutes. A no-detergent control was included separately for each timepoint.
Temperature dependance on Tween® 20 effect: To determine if temperature affected the ability of Tween® 20 to recover trimers from aggregates (i.e., collapse aggregate into trimer), 1 ug of purified KNH1144 SOSIP R6 trimer was incubated with Tween® 20 to a final concentration of 0.05% (v/v) at 0° C. […] Following the incubation, samples were analyzed by BN-PAGE and Coomassie staining.
Following the treatment, samples were analyzed by BN-PAGE and Coomassie staining.
Tween® 20 effect on -2-macroglogulin (a2M): 0.5 ug of purified -2-macroglobulin was either untreated or treated with Tween® 20 at a final concentration of 0.05% for 10 minutes at room temperature. Reactions were analyzed via BN-PAGE, followed by Coomassie staining.

[2] = DEAE anion exchange chromatography of Tween 20-treated trimers; format: physicochemical; settings: Tween 20 treated (0.05%), TN-75 buffer
Method: Purified KNH1144 SOSIP R6 gp140 trimers, treated either with or without 0.05% Tween® 20 (final), containing a2M contaminant in TN-75 buffer was applied over 1 ml DEAE HiTrap FF column (equilibrated in TN-75) at 0.25 ml/min at RT and flow-through (FT) fractions were collected. Following sample loading, the column was washed with TN-75 at 0.5 ml/min and wash fractions were collected. Finally, the column was eluted with TN-300 and equal amounts from each fraction were analyzed via BN-PAGE, followed by Coomassie G-250 staining.

[3] = test system: JR-FL WT Env-pseudotyped virus; format: cell-based, HIV-1 JR-FL
Method: (§1) Pseudotyped virions bearing JR-FL envelope glycoproteins (WT and mutant) were produced by cotransfection of selected env clones with a luciferase-expressing reporter vector, pNL4-3Env(−)Luc(+), as described above. To measure infectivity, luciferase-expressing Env-pseudotyped viruses (50 μl) containing normalized amounts of p24 antigen were added to 3×10^3 U87.CD4.CCR5 cells/well. U87.CD4.CXCR4 cells were used as a negative control. After 4 days, th cells were lysed with 75 μl of 1× Glo lysis buffer (Promega, Calif.) for subsequent quantification of luciferase, which was expressed by the Env-pseudotyped virions that contain the gene for firefly luciferase inserted into the nef gene of HIV-1, using the Bright-Glo™ Luciferase Assay Substrate (Promega, Calif.) and a VICTOR3 1420 multilabel counter (Perkin Elmer Life Sciences, Mass.).
(§2) Neutralization of infectivity was performed as described previously (Trkola et al., 1998). The pseudovirions were incubated with an equal volume of various MAbs, CD4-IgG2, or T-20 for 1 hour at 37° C. before the residual infectivity was determined using U87.CD4.CCR5 cells as described above. The concentration of each inhibitor was expressed as the amount present after the inhibitor-virus mixture was added to the cells. The data were analyzed by non-linear regression (variable-slope sigmoidal dose response) to calculate the inhibitor concentrations that caused 50% reductions in luciferase expression (IC50), using the GraphPad Prism 4 software (maximal viral production in the absence of inhibitor was designated as 100%).

[4] = test system: JR-FL gp41 NT 1-5 Env-pseudotyped virus; format: cell-based, HIV-1 JR-FL; settings: U87.CD4.CCR5 cells; in nM for T-20
Method: as §1, §2

Substance | effect of Tween 20 on BN-PAGE migration [1] | binding to DEAE column [2] | IC50 against WT Env-pseudotyped virus greater than against the mutant [3] | IC50 ([3]; U87.CD4.CCR5 cells, in nM for T-20) | IC50 [4]
a2M: acidic 726 kDa tetrameric glycoprotein, contaminant/control protein | No change was observed in the migratory pattern | bound to the DEAE column | – | – | –
enfuvirtide | – | – | 2 fold | 24.2 nM | 11.5 nM
